Results on 3 compounds are retold here after BindingDB's records for patent US20240336642 (The General Hospital, 2024).

The experiment addresses T1, Polyunsaturated fatty acid lipoxygenase ALOX12/ALOX15 (Homo sapiens, UniProt P16050+P18054).
T1 sequence (P16050 whole entry): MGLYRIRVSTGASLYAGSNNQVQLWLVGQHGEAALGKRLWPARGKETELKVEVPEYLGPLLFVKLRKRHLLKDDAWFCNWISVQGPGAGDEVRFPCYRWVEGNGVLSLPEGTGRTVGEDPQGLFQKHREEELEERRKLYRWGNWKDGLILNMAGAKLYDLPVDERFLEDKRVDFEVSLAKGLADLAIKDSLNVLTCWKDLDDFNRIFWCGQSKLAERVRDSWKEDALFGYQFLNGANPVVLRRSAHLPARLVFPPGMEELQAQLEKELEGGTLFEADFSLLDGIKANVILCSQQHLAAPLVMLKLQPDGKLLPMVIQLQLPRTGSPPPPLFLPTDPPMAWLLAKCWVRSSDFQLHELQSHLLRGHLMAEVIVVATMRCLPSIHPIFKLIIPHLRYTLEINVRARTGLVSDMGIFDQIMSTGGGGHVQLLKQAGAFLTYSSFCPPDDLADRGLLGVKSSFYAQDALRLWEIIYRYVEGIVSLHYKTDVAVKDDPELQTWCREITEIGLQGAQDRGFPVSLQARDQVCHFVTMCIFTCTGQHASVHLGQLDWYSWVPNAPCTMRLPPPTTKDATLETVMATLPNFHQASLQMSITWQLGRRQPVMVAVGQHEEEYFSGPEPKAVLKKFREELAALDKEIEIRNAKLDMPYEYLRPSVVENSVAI
T1 sequence (P18054 whole entry): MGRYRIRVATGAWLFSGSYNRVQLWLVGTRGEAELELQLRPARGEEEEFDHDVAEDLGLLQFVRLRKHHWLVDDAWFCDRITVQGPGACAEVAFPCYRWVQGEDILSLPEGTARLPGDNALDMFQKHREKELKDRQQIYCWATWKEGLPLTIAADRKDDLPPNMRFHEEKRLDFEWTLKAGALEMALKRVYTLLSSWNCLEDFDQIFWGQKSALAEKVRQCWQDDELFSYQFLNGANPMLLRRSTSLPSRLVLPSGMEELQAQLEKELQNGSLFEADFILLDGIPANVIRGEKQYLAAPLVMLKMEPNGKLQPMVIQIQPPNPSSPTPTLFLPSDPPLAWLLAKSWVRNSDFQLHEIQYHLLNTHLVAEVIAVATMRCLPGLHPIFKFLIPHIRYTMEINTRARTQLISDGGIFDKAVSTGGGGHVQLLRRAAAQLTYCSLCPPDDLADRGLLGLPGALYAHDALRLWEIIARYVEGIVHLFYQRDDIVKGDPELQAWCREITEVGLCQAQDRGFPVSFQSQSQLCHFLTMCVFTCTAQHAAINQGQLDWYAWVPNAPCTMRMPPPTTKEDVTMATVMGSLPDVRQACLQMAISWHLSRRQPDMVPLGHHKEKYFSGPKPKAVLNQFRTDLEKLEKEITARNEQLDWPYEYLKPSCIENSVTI
Kind of experiment: Biological Activity of Exemplified Compounds as Inhibitors of 12/15-LOX.
In turn, `CNc1oc(-c2cc(Cl)cc(Cl)c2OC(F)F)nc1C#N` [US20240336642, Compound 4] had an IC50 of 0.097 µM.
With `CNc1oc(-c2cc(Cl)cc(OC)c2Cl)nc1C#N` [US20240336642, Compound 9], the IC50 was found to be 0.38 µM.
`N#Cc1nc(-c2cc(Cl)cc(Cl)c2F)oc1NCCCCCO` [US20240336642, Compound 25] returned an IC50 of more than 20 µM.

A word on the IC50: it is the concentration that inhibits the measured activity by half.
